Legend:
[1] = system: pediatric cancer patient having drug-induced myocardial dysfunction caused by an anthracycline anticancer drug; conditions: cited from earlier work
[2] = system: early breast cancer patient treated with an anthracycline anticancer drug; conditions: cited from earlier work
[3] = system: activated, M1 and M2 macrophage markers in myocardial tissues; assay: Macrophage marker gene expression in myocardial tissue, quantitative real-time RT-PCR; assay type: in vivo, C57BL/6 mice; conditions: 14 days after DOX, FIG. 6
Protocol: Eight-week-old male C57BL/6 mice were divided into three groups (Control group, DOX group, and DOX+α-GC group). α-GalCer (KRN7000 (Funakoshi Co., Ltd.); 0.1 μg/g weight) was intraperitoneally administered to the DOX+α-GC group, while PBS was intraperitoneally administered to the Control group and the DOX group. Four days after the administration, doxorubicin (Doxorubicin hydrochloride, D1515 (SIGMA-ALDRICH); 20 mg/kg weight) was intraperitoneally administered to the DOX group and the DOX+α-GC group, while Vehicle (PBS) was intraperitoneally administered to the Control group. Three days after the administration of DOX or PBS, α-GalCer (0.1 μg/g weight) was intraperitoneally administered to the DOX+α-GC group, while PBS was intraperitoneally administered to the Control group and the DOX group. Fourteen days after the administration of DOX or PBS, echocardiography was performed for mice of each of the groups to evaluate their cardiac functions, and subsequently, the hearts of the mice were collected to perform pathological evaluation of myocardial tissue fibrosis and evaluation of inflammatory cytokine expression by using a quantitative real-time RT-PCR method. FIG. 1 illustrates the test schedules. Furthermore, using the above-mentioned cDNA as a template, a quantitative real-time RT-PCR was performed by the TaqMan method using the following primer sets and probes (all of them from Applied Biosystems) to evaluate the expression of CD11c and MHC II (activated macrophage markers), MCP-1, iNOS, and IL-1β (M1 macrophage markers), and […] and Arginase 1 (Arg1) (M2 macrophage markers). GAPDH was used as an endogenous control. • CD11c: TaqMan Gene Expression Assays, Mm00498701 ml • MHC II (H2-A1): TaqMan Gene Expression Assays, Mm00439211 ml • MCP1 (CCL2): TaqMan Gene Expression Assays, Mm00441242 ml • iNOS (NOS2): TaqMan Gene Expression Assays, Mm00440502 ml • IL-1β: TaqMan Gene Expression Assays, Mm00434228 ml • […]: TaqMan Gene Expression Assays, Mm00445109 ml • Arg1: TaqMan Gene Expression Assays, Mm00475988 ml • GAPDH: Mouse GAPD (20X), Probe dye VIC-MGB

[4] = system: post-myocardial infarction heart failure; conditions: ischemic heart failure; earlier work of the inventors; cited from earlier work
[5] = system: myocardial dysfunction model mice induced by doxorubicin; assay: Myocardial tissue fibrosis, Picro-sirius Red staining, after α-GalCer; assay type: in vivo, C57BL/6 mice; conditions: α-GalCer 0.1 μg/g i.p. before and after doxorubicin 20 mg/kg; heart collected 14 days after DOX; vs DOX group; FIG. 3
Protocol: Eight-week-old male C57BL/6 mice were divided into three groups (Control group, DOX group, and DOX+α-GC group). α-GalCer (KRN7000 (Funakoshi Co., Ltd.); 0.1 μg/g weight) was intraperitoneally administered to the DOX+α-GC group, while PBS was intraperitoneally administered to the Control group and the DOX group. Four days after the administration, doxorubicin (Doxorubicin hydrochloride, D1515 (SIGMA-ALDRICH); 20 mg/kg weight) was intraperitoneally administered to the DOX group and the DOX+α-GC group, while Vehicle (PBS) was intraperitoneally administered to the Control group. […] Fourteen days after the administration of DOX or PBS, echocardiography was performed for mice of each of the groups to evaluate their cardiac functions, and subsequently, the hearts of the mice were collected to perform pathological evaluation of myocardial tissue fibrosis and evaluation of inflammatory cytokine expression by using a quantitative real-time RT-PCR method. […]
Myocardial tissue fibrosis was evaluated by fixing a frozen section sample of myocardial tissue with 10% formalin and then staining the sample with 3% Picro-sirius Red (100 ml of Van Gieson Solution P (FUJIFILM Wako Pure Chemical Corporation)+3 ml of 1% Sirius Red (MUTO PURE CHEMICALS CO., LTD.)) to detect collagen. […]

[6] = system: inflammatory cytokine expression in myocardial tissues; assay: Inflammatory cytokine gene expression in myocardial tissue, quantitative real-time RT-PCR; assay type: in vivo, C57BL/6 mice; conditions: 14 days after DOX
Protocol: (§1) Eight-week-old male C57BL/6 mice were divided into three groups (Control group, DOX group, and DOX+α-GC group). α-GalCer (KRN7000 (Funakoshi Co., Ltd.); 0.1 μg/g weight) was intraperitoneally administered to the DOX+α-GC group, while PBS was intraperitoneally administered to the Control group and the DOX group. Four days after the administration, doxorubicin (Doxorubicin hydrochloride, D1515 (SIGMA-ALDRICH); 20 mg/kg weight) was intraperitoneally administered to the DOX group and the DOX+α-GC group, while Vehicle (PBS) was intraperitoneally administered to the Control group. Three days after the administration of DOX or PBS, α-GalCer (0.1 μg/g weight) was intraperitoneally administered to the DOX+α-GC group, while PBS was intraperitoneally administered to the Control group and the DOX group. Fourteen days after the administration of DOX or PBS, echocardiography was performed for mice of each of the groups to evaluate their cardiac functions, and subsequently, the hearts of the mice were collected to perform pathological evaluation of myocardial tissue fibrosis and evaluation of inflammatory cytokine expression by using a quantitative real-time RT-PCR method. FIG. 1 illustrates the test schedules.
Furthermore, total RNA was extracted from myocardial tissues using QuickGene-810 (FUJIFILM Corporation), and subjected to a reverse transcription reaction using a cDNA reverse transcription kit (Applied Biosystems) to prepare cDNA. Using this cDNA as a template, a quantitative real-time RT-PCR was performed by the TaqMan method to evaluate the expression of inflammatory cytokine. Primer sets and probes used (all of them from Applied Biosystems) were as follows. GAPDH was used as an endogenous control. • IFN-γ: TaqMan Gene Expression Assays, Mm01168134 ml • TNF-α: TaqMan Gene Expression Assays, Mm00443258 ml • IL-1β: TaqMan Gene Expression Assays, Mm00434228 ml • TGF-β1: TaqMan Gene Expression Assays, Mm01178820 ml • IL-4: TaqMan Gene Expression Assays, Mm00445259 ml • IL-10: TaqMan Gene Expression Assays, Mm01288386 ml • GAPDH: Mouse GAPD (20X), Probe dye VIC-MGB

[7] = system: myocardial dysfunction model mice induced by doxorubicin; assay: Echocardiography (left ventricular fractional shortening) after α-GalCer in doxorubicin myocardial dysfunction model; assay type: in vivo, C57BL/6 mice; conditions: α-GalCer 0.1 μg/g i.p. 4 days before and 3 days after doxorubicin 20 mg/kg i.p.; echocardiography 14 days after DOX; vs DOX group; FIG. 2
Protocol: as §1
The echocardiography was carried out by using an ultrasound recording device EUB-8000 (Hitachi, Ltd.) under anesthesia with pentobarbital. […]

[8] = comparison between the three groups

CCOC(=O)[C@H](CCc1ccccc1)N[C@@H](C)C(=O)N1CCC[C@H]1C(=O)O [enalapril]
left ventricular end-systolic wall stress [1]: reduced a left ventricular end-systolic wall stress | other important parameters reflecting a motor ability and the like [1]: failed to improve other important parameters reflecting a motor ability and the like

COCCc1ccc(OCC(O)CNC(C)C)cc1 (stereo not shown) [metoprolol]
decrease in left ventricular ejection fraction [2]: did not prevent the decrease in left ventricular ejection fraction

CCCCCCCCCCCCCCCCCCCCCCCCCC(=O)N[C@@H](CO[C@H]1O[C@H](CO)[C@H](O)[C@H](O)[C@H]1O)[C@H](O)[C@H](O)CCCCCCCCCCCCCC [α-GalCer, α-galactosylceramide]
expression of Arg1 (M2 macrophage marker) in myocardial tissue ([3]; DOX+α-GC group vs other groups): more enhanced in the DOX+α-GC group than in other groups | expression of CD11c (activated macrophage marker) in myocardial tissue ([3]; DOX+α-GC group vs other groups): more enhanced in the DOX+α-GC group than in other groups | expression of MHC II (activated macrophage marker) in myocardial tissue ([3]; DOX+α-GC group vs other groups): more enhanced in the DOX+α-GC group than in other groups | expression of Retnla (M2 macrophage marker) in myocardial tissue ([3]; DOX+α-GC group vs other groups): more enhanced in the DOX+α-GC group than in other groups | expression of IL-1β (M1 macrophage marker) in myocardial tissue [3, 8]: any significant difference in the expression of MCP-1, iNOS, and IL-1β as M1 macrophage markers between the three groups was not observed | expression of MCP-1 (M1 macrophage marker) in myocardial tissue [3, 8]: any significant difference in the expression of MCP-1, iNOS, and IL-1β as M1 macrophage markers between the three groups was not observed | expression of iNOS (M1 macrophage marker) in myocardial tissue [3, 8]: any significant difference in the expression of MCP-1, iNOS, and IL-1β as M1 macrophage markers between the three groups was not observed | therapeutic effect on post-myocardial infarction heart failure [4]: confirmed therapeutic effects | myocardial tissue fibrosis (ratio of stained area) [5]: the progression as observed in the DOX group was significantly suppressed | expression of IFN-γ in myocardial tissue ([6]; DOX+α-GC group vs Control and DOX groups, FIG. 5): tended to be more enhanced in the DOX+α-GC group than in other groups | expression of interleukin-4 (IL-4) in myocardial tissue ([6]; DOX+α-GC group vs Control and DOX groups, GAPDH endogenous control, FIG. 4, FIG. 5): tended to be more enhanced in the DOX+α-GC group than in other groups | expression of other cytokines such as IL-10 in myocardial tissue ([6]; comparison between Control, DOX and DOX+α-GC groups, FIG. 5): any significant difference in the expression of other cytokines such as IL-10 between the three groups was not observed | cardiac function, left ventricular fractional shortening (% FS) [7]: did not show the decrease in cardiac function as observed in the DOX group

Reference: patent publication US20220160659A1, “PHARMACEUTICAL COMPOSITION COMPRISING a-GALACTOSYLCERAMIDE AND/OR DENDRITIC CELLS PULSED WITH a-GALACTOSYLCERAMIDE” (National University Corporation Hokkaido University, priority 2019, published 2022)
